These are literature values, as cited in patent US20240252632A1, “METHODS OF TREATING LUNG CANCER WITH A PD-1 AXIS BINDING ANTAGONIST, AN ANTIMETABOLITE, AND A PLATINUM AGENT” (Genentech, Inc., priority 2018, published 2024).

Turning to `[NH3+][Pt-2]1([NH3+])[O]C(=O)C2(CCC2)C(=O)[O]1` [Carboplatin, platinum, diammine[1,1-cyclobutanedicarboxylato(2-)-O,O′]—, (SP-4-2)], for the setting “ethanol, acetone, dimethylacetamide”, the “solubility in ethanol, acetone, and dimethylacetamide” value is “virtually insoluble”. Moreover, under “water”, the solubility in water entry is given as “approximately 14 mg/mL”.
